Data: patent US7057171B2, “Patch-clamping and its use in analyzing subcellular features” (priority 2001, dated 2006)

System: Cl^− channel
Assay: Whole-cell Cl^− current recording (patch-clamp) in rat cardiac myocytes
Assay type: cell-based
Settings: rat left ventricle cardiac myocytes, currents measured at plateau level, 30 μM nifedipine in bath
Description: FIG. 4: Channels with 3 different current types were found. (A) A small-conductance inwardly rectifying channel (ClSIR). (B) A large-conductance inwardly rectifying channel (ClLIR). (C) An outwardly rectifying channel (ClOR). For each type of channel, a family of currents at different voltages (on the left side of the panels), current-voltage characteristics (on the top right side of the panels) and channel densities at different surface positions (on the bottom right side of the panels) are shown. The mean reversal potential was −31.2±2.4 mV (n=5) for (A)−31.8±3.4 mV (n=5) for (B) and −33.5±3.0 mV (n=4) for (C). (D) Calculated whole-cell current extrapolated from single-channel currents. (E) Current-voltage characteristics of experimental whole-cell currents obtained from 22 cells (black circles). […] Currents were measured at plateau level.
Left ventricle cells from the rat myocardium were isolated as previously described (Harding et al, J. Mol. Cell Cardiol. 20:635–647, 1988). Cells were allowed to attach to polystyrene cell culture dishes filled with bath solutions.
the bath solution contained (in mM) K-glutamate 120, KCl 25, MgCl2 2, CaCl2 1, EGTA 2, glucose 10 and HEPES 10, adjusted to pH 7.4 with CsOH. The pipette backfill solution contained N-methyl-D-glucamine-Cl (NMDG-Cl) 108, HEPES 5, glucose 5.5 and EGTA 1, adjusted to pH 7.4 with TEA-OH. […]

| Structure (SMILES) | Block of experimental whole-cell Cl^− currents (1 mM, n=5) | Block of experimental whole-cell Cl^− currents (300 μM, n=12) |
| --- | --- | --- |
| [Cd+2] [Cd^2+] | almost completely blocked | – |
| CC(=O)Nc1ccc(C=Cc2ccc(N=C=S)cc2S(=O)(=O)O)c(S(=O)(=O)O)c1 [SITS, stilbene disulfonate] | – | partially blocked |
